The values that follow come from patent US7589057B2, “Oil-in-water method for making alpha-2 agonist polymeric drug delivery systems” (Allergan, Inc., priority 2004, dated 2009).

SMILES strings stand for the structures. Values after ≈ are worked out from the molar mass of the structure shown.

Data set [1] can be described thus: Solubility of bimatoprost in water. It counts as physicochemical. The conditions noted are these: room temperature. The source says:
(§1) FIGS. 2A, 2B, 2C, 2D, 2E, and 2F illustrate the chemical structure of bimatoprost (AGN 192024, FIG. 2A), 15β bimatoprost (FIG. 2B); 5,6-trans bimatoprost isomer (FIG. 2C); C1 acid of bimatoprost (FIG. 2D); triphenyphosphine oxide (TPPO; FIG. 2E); and 15-Keto bimatoprost (FIG. 2F). Bimatoprost is the active ingredient and the other chemicals are impurities that may be present. […] Bimatoprost is a non-ionizable compound.

A short description of data set [2]: Effects of gamma sterilization on the stability of bimatoprost. It counts as physicochemical. The method, then: The formula abbreviations correspond to compounds illustrated in FIGS. 2A-2F. High performance liquid chromatography was used to quantify bimatoprost and impurities present in the microparticles. Analytes were eluted from a Waters Symmetry® C18 reverse-phase column using a mobile phase composed of 72/18/10 (water/acetonitrile/methanol v/v/v) containing 0.03% (w/v) trifluoroacetic acid. UV detection was performed at 210 nm.

The format of data set [3] is physicochemical.
From the text: as §1

Data set [4] can be described thus: Ionisability of bimatoprost. It counts as physicochemical.
From the text: as §1

For the compound `CCNC(=O)CCC/C=C\C[C@@H]1[C@@H](/C=C/[C@@H](O)CCc2ccccc2)[C@H](O)C[C@@H]1O` [Bimatoprost], the concentration in solution in data set [1] (solubility) came to 3200 µg/mL (≈ 7.7 mM). In data set [2] (gamma sterilized), the “% wt/wt 5,6-trans” value stood at 0.1 % wt/wt; the “% wt/wt 15β” value was 0.1 % wt/wt; the “% wt/wt bimatoprost” value was 85.3 % wt/wt; the “% wt/wt, 15-keto” value stood at 2.3 % wt/wt. Besides, the “decrease of the amount of active bimatoprost by gamma sterilization” value in data set [2] (gamma sterilized vs none sterilized) is “about 10%”. Also, in data set [2] (none sterilized), the “% wt/wt 5,6-trans” value is 0.1 % wt/wt; the “% wt/wt 15β” value amounted to 0.2 % wt/wt; the “% wt/wt bimatoprost” value is given as 95.3 % wt/wt; the “% wt/wt, 15-keto” value is 1.0 % wt/wt. Further, the “partition coefficient Log P” value in data set [3] was 2.4 plus or minus 0.1. Further, the ionisability entry in data set [4] is given as “non-ionizable”.
